Results taken from patent US11505548B2, “Heterocyclic compounds and their use for treatment of helminthic infections and diseases” (Celgene Corporation, priority 2019, dated 2022).
Read-outs that look alike come from different tables or passages of the source.

Tested on: Onchocerca gutturosa Adult Male Worms
Assay: Onchocerciasis in vitro screening model, worm motility score
Assay type: cell-based
Details: read-out: O. gutturosa activity level (IC50 or MED)
[1] = in vitro, Onchocerca gutturosa adult male worms, class A/B/C
[2] = Onchocerca gutturosa, Table 1 O. gutturosa, levels A/B/C, motility or MTT readout not specified

SMILES	IC50 [1]	IC50 [2]
COc1ccc(-c2nsc(Nc3ccc(OC(C)C)cn3)n2)nc1 [Compound 215, N-(5-isoprop-oxypyridin-2-yl)-3-(5-methoxy-pyridin-2-yl)-1,2,4-thiadiazol-5-amine]	500 to 5000 nM	–
Cc1cccnc1Nc1nc(-c2ccc(OC3CCOCC3)cn2)no1 [Compound 16, N-(3-methyl-pyridin-2-yl)-3-(5-(tetrahydro-2H-pyran-4-yloxy)pyridin-2-yl)-1,2,4-oxadiazol-5-amine]	–	< 200 nM
Cc1cccnc1Nc1nc(-c2cc(C(F)(F)F)c(OC3CC3)cn2)ns1 [Compound 102, 3-(5-cyclo-propoxy-4-(trifluoromethyl)pyridin-2-yl)-N-(3-methyl-pyridin-2-yl)-1,2,4-thiadiazol-5-amine]	–	500 to 5000 nM
COc1cccnc1Nc1nc(-c2ccc(OCC(F)(F)F)cn2)ns1 [Compound 105, N-(3-methoxy-pyridin-2-yl)-3-(5-(2,2,2-trifluoroethoxy)pyridin-2-yl)-1,2,4-thiadiazol-5-amine]	–	< 200 nM
Cc1cccnc1Nc1nc(-c2ccc(C3CCN(C)CC3)cn2)ns1 [Compound 48, 3-(5-(1-methyl-piperidin-4-yl)pyridin-2-yl)-N-(3-methylpyridin-2-yl)-1,2,4-thiadiazol-5-amine]	–	500 to 5000 nM
CC(=O)N(C)c1cccnc1Nc1nc(-c2ccc(OC(C)C)cn2)ns1 [Compound 157, N-(2-(3-(5-isopropoxy-pyridin-2-yl)-1,2,4-thiadiazol-5-ylamino)pyridin-3-yl)-N-methyl-acetamide]	–	500 to 5000 nM
Cc1cccnc1Nc1nc(-c2ccc(OC3CC4(CCN(C)C4)C3)cn2)ns1 (stereo not drawn) [Compound 77, 3-(5-(6-methyl-6-azaspiro [3.4]octan-2-yloxy)pyridin-2-yl)-N-(3-methylpyridin-2-yl)-1,2,4-thiadiazol-5-amine]	–	500 to 5000 nM
Cc1cccnc1Nc1nc(-c2ccc(OC(F)(F)F)cn2)ns1 [Compound 52, N-(3-methyl-pyridin-2-yl)-3-(5-(trifluoro-methoxy)pyridin-2-yl)-1,2,4-thiadiazol-5-amine]	–	< 200 nM
CC(C)Oc1ccc(-c2nsc(Nc3ncccc3N(C)C(=O)C3CC3)n2)nc1 [Compound 170, N-(2-(3-(5-isopropoxy-pyridin-2-yl)-1,2,4-thiadiazol-5-ylamino)pyridin-3-yl)-N-methylcyclo-propanecarbox-amide]	–	200 to 500 nM
CC(C)Oc1cnc(-c2nsc(Nc3ncc(C(C)C)cc3C(F)(F)F)n2)cc1C(N)=O [Compound 221, 5-isopropoxy-2-(5-(5-isopropyl-3-(trifluoromethyl)pyridin-2-ylamino)-1,2,4-thiadiazol-3-yl)iso-nicotinamide]	200 to 500 nM	–
Cc1cnc(Nc2nc(-c3cc(C(N)=O)c(OC(C)C)cn3)ns2)c(C(F)(F)F)c1 [Compound 252, 5-isopropoxy-2-(5-(5-methyl-3-(trifluoro-methyl)pyridin-2-ylamino)-1,2,4-thiadiazol-3-yl)isonico-tinamide]	500 to 5000 nM	–
Cc1cccnc1Nc1nc(-c2ccc(S(C)(=O)=O)cn2)ns1 [Compound 79, N-(3-methyl-pyridin-2-yl)-3-(5-(methyl-sulfonyl)pyridin-2-yl)-1,2,4-thiadiazol-5-amine]	–	500 to 5000 nM
CC(C)Oc1ccc(-c2nsc(Nc3ncccc3C(=O)N(C)C)n2)nc1 [Compound 188, 2-(3-(5-isoprop-oxypyridin-2-yl)-1,2,4-thiadiazol-5-ylamino)-N,N-dimethyl nicotinamide]	–	200 to 500 nM
CC(C)Oc1ccc(-c2nsc(Nc3ncccc3C(C)C)n2)nc1 [Compound 115, 3-(5-isopropoxy-pyridin-2-yl)-N-(3-isopropyl-pyridin-2-yl)-1,2,4-thiadiazol-5-amine]	–	< 200 nM
c1ccc(-c2nsc(Nc3ccc(N4CCOCC4)cn3)n2)nc1 [Cmpd 5, N-(5-morpholino-pyridin-2-yl)-3-(pyridin-2-yl)-1,2,4-thiadiazol-5-amine]	–	500 to 5000 nM
Cc1cccnc1Nc1nnc(-c2cc(OC(C)C)ccn2)s1 [Compound 173, 5-(4-isopropoxy-pyridin-2-yl)-N-(3-methyl-pyridin-2-yl)-1,3,4-thia-diazol-2-amine]	–	500 to 5000 nM
CC(=O)N(C)c1cc(C(F)(F)F)cnc1Nc1nc(-c2cc3c(cn2)N(C)CC3)ns1 [Compound 249, N-methyl-N-(2-(3-(1-methyl-2,3-dihydro-1H-pyrrolo[2,3-c]pyridin-5-yl)-1,2,4-thiadiazol-5-ylamino)-5-(trifluoromethyl)pyridin-3-yl)acetamide]	200 to 500 nM	–
CC(=O)N(C)c1cc(C(F)(F)F)cnc1Nc1nc(-c2ccc(OC(C)C)cn2)ns1 [Compound 247, N-(2-(3-(5-isopropoxy-pyridin-2-yl)-1,2,4-thiadiazol-5-ylamino)-5-(trifluoro-methyl)pyridin-3-yl)-N-methylacetamide]	< 200 nM	–
COC(=O)c1cc(-c2nsc(Nc3ncccc3C(C)C)n2)ncc1OC(C)C [Compound 197, methyl 5-isopropoxy-2-(5-(3-isopropylpyridin-2-ylamino)-1,2,4-thiadiazol-3-yl)isonicotinate]	–	< 200 nM
CC(C)Oc1ccc(-c2nsc(Nc3ncccc3N(C)C(=O)C(C)C)n2)nc1 [Compound 169, N-(2-(3-(5-isopropoxy-pyridin-2-yl)-1,2,4-thiadiazol-5-ylamino)pyridin-3-yl)-N-methyliso-butyramide]	–	200 to 500 nM
CN(C)c1cccnc1Nc1nc(-c2ccc(OCC(F)(F)F)cn2)ns1 [Compound 101, N3,N3-dimethyl-N2-(3-(5-(2,2,2-trifluoroethoxy)pyridin-2-yl)-1,2,4-thiadiazol-5-yl)pyridine-2,3-diamine]	–	200 to 500 nM

The next lines start with results.

IC50 [1]	SMILES	IC50 [2]
< 200 nM	CNc1nccnc1Nc1nc(-c2cc3ccn(C(C)C)c3cn2)ns1 [Compound 303, N2-(3-(1-isopropyl-1H-pyrrolo[2,3-c]pyridin-5-yl)-1,2,4-thiadiazol-5-yl)-N3-methylpyrazine-2,3-diamine]	–
500 to 5000 nM	Cc1cccnc1Nc1nc(-c2cc(C(C)C)c(C(=O)N(C)C)cn2)ns1 [Compound 230, 4-isopropyl-N,N-dimethyl-6-(5-(3-methyl-pyridin-2-ylamino)-1,2,4-thiadiazol-3-yl)nicotinamide]	–
< 200 nM	CC(=O)N(C)c1nccnc1Nc1nc(-c2cc3c(cn2)N(C(C)C)CC3)ns1 [Compound 309, N-(3-(3-(1-isopropyl-2,3-dihydro-1H-pyrrolo[2,3-c]pyridin-5-yl)-1,2,4-thiadiazol-5-ylamino)pyrazin-2-yl)-N-methylacetamide]	–
500 to 5000 nM	CC(=O)N(C)c1cnc(Nc2nc(-c3ccc(OC(C)C)cn3)ns2)c(C(F)(F)F)c1 [Compound 300, N-(6-(3-(5-isopropoxypyridin-2-yl)-1,2,4-thiadiazol-5-ylamino)-5-(trifluoromethyl)pyridin-3-yl)-N-methylacetamide]	–
500 to 5000 nM	CC(=O)N(C)c1cc(C(F)(F)F)cnc1Nc1nc(-c2ncc(OC(C)C)cn2)ns1 [Compound 316, N-(2-(3-(5-isopropoxy-pyrimidin-2-yl)-1,2,4-thiadiazol-5-ylamino)-5-(trifluoromethyl)pyridin-3-yl)-N-methylacetamide]	–
500 to 5000 nM	CC(=O)N(C)c1cnc(Nc2nc(-c3cc(OC(C)C)ccn3)ns2)c(C(F)(F)F)c1 [Compound 285, N-(6-(3-(4-isopropoxy-pyridin-2-yl)-1,2,4-thiadiazol-5-ylamino)-5-(trifluoromethyl)pyridin-3-yl)-N-methylacetamide]	–
